Calls of active or inactive are those of the source. The calls are words filed in the database; no cut-off is given here.
Experiments:
C2C12 [1] = assay: Effect on BIN1 splicing patterns in mouse C2C12 cells at 1 to 20 uM by RT-qPCR method; type: ADME, cell-based; conditions: c2c12, 20 µM
C2C12 [2] = assay: Effect on r(CCUG)300 levels in mouse C2C12 cells at 10 uM by RT-qPCR method; type: functional, cell-based
C2C12 [3] = assay: Binding affinity to r(CCUG)300 RNA (unknown origin) in mouse C2C12 cells transfected with BIN1 assessed as rescue of BIN1 splicing defect at 10 uM after 72 hrs by PCR analysis; type: cell-based
C2C12 [4] = assay: Effect on BIN1 splicing patterns in mouse C2C12 cells at 0.1 to 10 uM by RT-qPCR method; type: ADME, cell-based; conditions: c2c12, 10 µM
[5] = Binding affinity to 5-biotin-r(CCUG)12 RNA (unknown origin) assessed as disruption of 5-biotin-r(CCUG)12/His6-tagged MBNL1 complex incubated for 15 mins by TR-FRET assay
[6] = Binding affinity to 5-biotin-r(CCUG)12 RNA (unknown origin) assessed as inhibition of r(CCUG)12/His6-tagged MBNL1 complex formation preincubated for 15 mins followed by addition of His6-tagged MBNL1 by TR-FRET assay
[7] = Binding affinity to r(CCUG)300 RNA (unknown origin) in mouse C2C12 cells transfected with BIN1 assessed as rescue of BIN1 splicing defect after 72 hrs by PCR analysis; type: cell-based
C2C12 [8] = assay: Binding affinity to r(CCUG)300 RNA (unknown origin) in mouse C2C12 cells transfected with BIN1 splicing mini gene assessed as rescue of BIN1 splicing defect at 100 nM after 72 hrs by PCR analysis; type: cell-based

SMILES	Activity (C2C12 [2])	Activity (C2C12 [3]) [%]	Activity (C2C12 [4])	IC50 [5] [nM]	IC50 [6] [nM]	other results
C#CCCCC(=O)NC[C@@H]1O[C@@H](O[C@H]2[C@H](O)[C@@H](O[C@@H]3O[C@@H](CO)[C@H](O)[C@@H](N)[C@@H]3O)[C@H](N)C[C@@H]2N)[C@@H](O)[C@H](O)[C@H]1O	inactive	15				Activity (C2C12 [1]): Non-toxic
CCCN(CC(=O)N(CCC)CC(=O)N(CCC)CC(=O)N(CCC)CC(=O)N(CCCn1cc(CCCC(=O)NC[C@H]2O[C@H](O[C@@H]3[C@@H](O)[C@H](O[C@@H]4O[C@@H](CO)[C@H](O)[C@@H](N)[C@@H]4O)[C@@H](N)C[C@H]3N)[C@H](O)[C@@H](O)[C@@H]2O)nn1)CC(N)=O)C(=O)CNCCCn1cc(CCCC(=O)NC[C@@H]2O[C@@H](O[C@@H]3[C@@H](O)[C@H](O[C@@H]4O[C@@H](CO)[C@H](O)[C@@H](N)[C@@H]4O)[C@@H](N)C[C@H]3N)[C@@H](O)[C@H](O)[C@H]2O)nn1	inactive	60	Non-toxic			
Nc1ccn([C@@H]2C[C@@H](OP(=O)(O)OC[C@H]3O[C@@H](n4cnc5c(N)ncnc54)C[C@@H]3OP(=O)(O)OC[C@H]3O[C@@H](n4cnc5c(=O)[nH]c(N)nc54)C[C@@H]3OP(=O)(O)OC[C@@H]3O[C@H](n4cnc5c(=O)[nH]c(N)nc54)C[C@H]3OP(=O)(O)OC[C@@H]3O[C@H](n4ccc(N)nc4=O)C[C@H]3OP(=O)(O)OC[C@H]3O[C@@H](n4cnc5c(N)ncnc54)C[C@@H]3OP(=O)(O)OC[C@H]3O[C@@H](n4cnc5c(=O)[nH]c(N)nc54)C[C@@H]3OP(=O)(O)OC[C@H]3O[C@@H](n4cnc5c(=O)[nH]c(N)nc54)C[C@@H]3O)[C@H](COP(=O)(O)O[C@H]3C[C@H](n4cnc5c(=O)[nH]c(N)nc54)O[C@@H]3COP(=O)(O)O[C@@H]3C[C@@H](n4cnc5c(=O)[nH]c(N)nc54)O[C@H]3COP(=O)(O)O[C@@H]3C[C@@H](n4cnc5c(N)ncnc54)O[C@H]3COP(=O)(O)O[C@H]3C[C@H](n4ccc(N)nc4=O)O[C@@H]3COP(=O)(O)O)O2)c(=O)n1				470	300	
C#CNC(=O)CC(=O)NC[C@H]1O[C@H](O[C@@H]2[C@@H](O)[C@H](O[C@@H]3O[C@@H](CN=[N+]=[N-])[C@H](O)[C@@H](N)[C@@H]3O)[C@@H](N)C[C@H]2N)[C@H](O)[C@@H](O)[C@@H]1O (stereo in doubt)			Non-toxic			IC50 [7]: 80 nM; Activity (C2C12 [8]): 50%
Nc1ccn([C@@H]2C[C@@H](OP(=O)(O)OC[C@H]3O[C@@H](n4cnc5c(N)ncnc54)C[C@@H]3OP(=O)(O)OC[C@H]3O[C@@H](n4cnc5c(=O)[nH]c(N)nc54)C[C@@H]3OP(=O)(O)OC[C@H]3O[C@@H](n4cnc5c(=O)[nH]c(N)nc54)C[C@@H]3OP(=O)(O)OC[C@@H]3O[C@H](n4ccc(N)nc4=O)C[C@H]3OP(=O)(O)OC[C@@H]3O[C@H](n4cnc5c(N)ncnc54)C[C@H]3OP(=O)(O)OC[C@@H]3O[C@H](n4cnc5c(=O)[nH]c(N)nc54)C[C@H]3OP(=O)(O)OC[C@H]3O[C@@H](n4cnc5c(=O)[nH]c(N)nc54)C[C@@H]3O)[C@H](COP(=O)(O)O)O2)c(=O)n1				830	700	
C#CCCCC(=O)NC[C@H]1O[C@H](O[C@H]2[C@H](O)[C@@H](O[C@H]3O[C@H](CN=[N+]=[N-])[C@@H](O)[C@H](N)[C@H]3O)[C@H](N)C[C@@H]2N)[C@H](O)[C@@H](O)[C@@H]1O	inactive					

Reference: ChEMBL document CHEMBL3804791, “Comparison of small molecules and oligonucleotides that target a toxic, non-coding RNA” (Bioorg Med Chem Lett, 2016)
